Test results taken from patent US20160199491A1, “Compounds compositions and methods including thermally labile moieties” (Biosearch Technologies, Inc., priority 2014, published 2016).

Assay: Deprotection of a Boc-protected PCR primer at 94° C. in water, PCR buffer or TEAA, tracked by reverse-phase HPLC and mass spec
Assay type: physicochemical
Protocol: The RNaseP forward primer 19-mer [AGATTTGGACCTGCGAGCG](SEQ ID NO: 1) was synthesized on Boc-dG CPG (1 μmol) with Boc dA, dC, and dG amidites. The fully deprotected mass for this primer is 5868 g/mol and the expected mass for Boc protection is […] [15 Boc residues.100 amu/Boc=1500 added]. Deprotection of side chain protecting groups was performed with 25% 2-methoxyethylamine in methanol (1 mL) for 3 hrs at room temp, remove CPG and evaporate to dryness, re-dissolve in DI water (1 mL). The DMT was […] because the Boc group can be used as a hydrophobic handle. The product was desalted with 20-50 micron polystyrene beads packed in a 1 mL cartridge and eluted in 20% ACN/H2O.
The desalted Boc-primer was aliquoted into three microfuge tubes of 100 uL each. The samples were dried down and brought up in 1 mL of house DI water. Only water was added to the first tube. To the second tube 1 mL of PCR buffer pH 8.5, 1× with MgCl2, was added to a final concentration of 6 mM (standard PCR concentrations). To the third tube TEAA was added to give a final concentration of 0.025 N. Each of the three samples was aliquoted into ten 200 uL thin-walled PCR tubes for a total of 30 tubes. All primer preparation was done at room temperature.
An ABI 9700 Thermocycler was preheated to 94° C. Each sample was placed into the heat block and removed at the time point and placed on dry ice to stop the reaction. As a negative control, the T=0 sample was not heated and placed directly in ice at the beginning of the experiment. The samples were allowed to thaw at room temperature and transferred to a 96-well plate for HPLC and mass spectroscopy analysis.
For each time point, reverse-phase and mass spec data were acquired to track the removal of the Boc protecting group. The Boc protected primer is not a single species but rather a collection at various stages of protection.

Boc-primer: RNaseP forward primer 19-mer [AGATTTGGACCTGCGAGCG] (SEQ ID NO: 1) synthesized with Boc dA, dC, and dG amidites (listed as DNA, chemistry not fully specified)
deprotection after 10 minutes under normal PCR buffering (10 minutes, PCR buffer pH 8.5, 1× with MgCl2 6 mM): deprotected
Boc groups after 10 minutes in TEAA (10 minutes, TEAA 0.025 N): some remained
Boc groups after 10 minutes (10 minutes, samples in water, PCR buffer pH 8.5 with MgCl2 6 mM, TEAA 0.025 N): almost all of the Boc groups were gone
Boc groups after 15 minutes in TEAA (15 minutes, TEAA 0.025 N): all were removed
